Test [1] has as its target T1, Lymphokine-activated killer T-cell-originated protein kinase (Homo sapiens) (UniProt Q96KB5).
T1 sequence (whole entry): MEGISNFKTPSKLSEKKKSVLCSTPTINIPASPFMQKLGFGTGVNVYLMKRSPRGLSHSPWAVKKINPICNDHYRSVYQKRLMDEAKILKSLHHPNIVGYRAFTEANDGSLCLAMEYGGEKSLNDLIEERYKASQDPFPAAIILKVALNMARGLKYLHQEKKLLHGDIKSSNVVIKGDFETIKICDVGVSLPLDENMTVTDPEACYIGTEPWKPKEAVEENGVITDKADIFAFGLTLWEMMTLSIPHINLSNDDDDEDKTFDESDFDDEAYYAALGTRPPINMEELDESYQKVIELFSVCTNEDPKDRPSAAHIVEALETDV
Kind of test: Selectivity interaction (Kinase panel (DSF assay)) EUB0001558a PBK. In general terms: DSF heats the sample and reads unfolding from a dye or from intrinsic fluorescence.

The target of test [2] is Tyrosine-protein kinase Blk (Homo sapiens) (UniProt P51451). Kind of test: Selectivity interaction (Kinase panel (Z-LYTE Assay)) EUB0001632a BLK. Conditions: at 10 µM.
For test [3], the target named is Receptor-type tyrosine-protein kinase FLT3 (Homo sapiens) (UniProt P36888). Kind of test: Selectivity interaction (KinomeScan (DiscoverX)) EUB0000607a FLT3. Conditions: at 10 µM.
For test [4], the target named is Proto-oncogene tyrosine-protein kinase ROS (Homo sapiens) (UniProt P08922). Kind of test: Selectivity interaction (SelectScreen profiling (Invitrogen)) EUB0000607a ROS1. Conditions: at 2 µM.
In test [5] the target is Atypical kinase COQ8A, mitochondrial (Homo sapiens, UniProt Q8NI60). In words: Selectivity interaction (Competition-binding assay (DiscoverX)) EUB0000229b ADCK3.
In the next test the target is Insulin receptor (Homo sapiens, UniProt P06213). Kind of test: Selectivity interaction (KinomeScan (DiscoverX)) EUB0000229b INSR. Conditions: at 10 µM.
For test [6], the target named is T2, Mitogen-activated protein kinase kinase kinase 2 (Homo sapiens) (UniProt Q9Y2U5).
T2 sequence (whole entry): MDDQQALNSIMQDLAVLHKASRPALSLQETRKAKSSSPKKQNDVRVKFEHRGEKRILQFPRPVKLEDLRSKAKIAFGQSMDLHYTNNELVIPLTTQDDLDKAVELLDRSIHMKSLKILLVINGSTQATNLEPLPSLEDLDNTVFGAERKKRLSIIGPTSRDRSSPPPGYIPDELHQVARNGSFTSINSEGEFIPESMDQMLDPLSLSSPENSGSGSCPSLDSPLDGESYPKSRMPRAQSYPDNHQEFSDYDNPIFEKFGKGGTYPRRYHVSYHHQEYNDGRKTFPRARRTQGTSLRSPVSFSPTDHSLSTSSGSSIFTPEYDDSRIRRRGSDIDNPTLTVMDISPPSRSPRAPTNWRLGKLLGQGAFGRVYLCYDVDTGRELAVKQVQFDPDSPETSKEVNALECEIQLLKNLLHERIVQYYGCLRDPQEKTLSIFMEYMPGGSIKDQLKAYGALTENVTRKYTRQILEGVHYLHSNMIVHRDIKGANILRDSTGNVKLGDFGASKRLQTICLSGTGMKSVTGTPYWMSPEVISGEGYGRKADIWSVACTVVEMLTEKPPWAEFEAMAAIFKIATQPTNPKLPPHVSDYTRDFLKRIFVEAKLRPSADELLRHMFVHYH
In words: Selectivity interaction (KinomeScan (DiscoverX)) EUB0001619a MAP3K2. Conditions: at 1 µM.

Test [7] deals with T3, Cyclin-dependent kinase-like 5 (Homo sapiens) (UniProt O76039).
T3 sequence (whole entry): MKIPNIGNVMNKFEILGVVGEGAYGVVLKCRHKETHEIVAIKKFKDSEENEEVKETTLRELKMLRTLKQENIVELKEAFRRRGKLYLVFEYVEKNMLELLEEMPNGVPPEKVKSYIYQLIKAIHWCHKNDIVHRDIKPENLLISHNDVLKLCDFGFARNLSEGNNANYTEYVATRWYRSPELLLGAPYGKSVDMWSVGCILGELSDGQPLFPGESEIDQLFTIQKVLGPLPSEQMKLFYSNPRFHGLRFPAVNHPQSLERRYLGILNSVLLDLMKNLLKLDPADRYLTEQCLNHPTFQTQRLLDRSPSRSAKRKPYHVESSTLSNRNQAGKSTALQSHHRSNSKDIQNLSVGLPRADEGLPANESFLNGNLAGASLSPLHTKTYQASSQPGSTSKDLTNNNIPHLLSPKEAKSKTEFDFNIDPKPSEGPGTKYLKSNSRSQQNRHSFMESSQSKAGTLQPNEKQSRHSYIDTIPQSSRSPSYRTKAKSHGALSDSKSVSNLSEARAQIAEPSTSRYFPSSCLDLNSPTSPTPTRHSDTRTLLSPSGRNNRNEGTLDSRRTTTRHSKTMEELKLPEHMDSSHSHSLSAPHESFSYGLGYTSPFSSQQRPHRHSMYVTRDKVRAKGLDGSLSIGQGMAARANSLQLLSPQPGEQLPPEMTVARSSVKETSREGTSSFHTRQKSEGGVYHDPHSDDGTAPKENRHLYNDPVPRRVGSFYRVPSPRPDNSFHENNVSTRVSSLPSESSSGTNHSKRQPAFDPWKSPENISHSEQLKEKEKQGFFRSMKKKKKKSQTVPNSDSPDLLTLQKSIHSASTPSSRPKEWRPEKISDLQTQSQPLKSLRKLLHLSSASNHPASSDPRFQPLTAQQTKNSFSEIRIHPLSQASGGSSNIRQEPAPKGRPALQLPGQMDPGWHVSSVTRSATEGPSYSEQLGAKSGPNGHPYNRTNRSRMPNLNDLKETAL
Kind of test: Selectivity interaction (KinomeScan (DiscoverX)) EUB0000618a CDKL5. Conditions: at 10 µM.

Tyrosine-protein kinase Blk (Homo sapiens), sequence (P51451 2-505 limits assumed): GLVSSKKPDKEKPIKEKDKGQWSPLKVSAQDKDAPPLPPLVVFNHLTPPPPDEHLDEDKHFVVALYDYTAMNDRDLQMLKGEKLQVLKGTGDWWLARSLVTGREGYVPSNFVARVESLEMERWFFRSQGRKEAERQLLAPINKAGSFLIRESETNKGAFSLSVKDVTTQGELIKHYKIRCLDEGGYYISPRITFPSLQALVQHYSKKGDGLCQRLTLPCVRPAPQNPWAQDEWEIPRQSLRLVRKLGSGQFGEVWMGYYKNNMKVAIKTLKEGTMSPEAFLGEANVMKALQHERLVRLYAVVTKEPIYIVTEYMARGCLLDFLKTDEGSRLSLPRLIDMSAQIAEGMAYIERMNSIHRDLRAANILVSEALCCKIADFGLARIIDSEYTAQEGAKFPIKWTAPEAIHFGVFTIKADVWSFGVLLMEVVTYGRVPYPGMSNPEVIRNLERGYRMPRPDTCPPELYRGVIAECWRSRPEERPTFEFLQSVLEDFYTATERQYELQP
Proto-oncogene tyrosine-protein kinase ROS (Homo sapiens), sequence (P08922 whole entry): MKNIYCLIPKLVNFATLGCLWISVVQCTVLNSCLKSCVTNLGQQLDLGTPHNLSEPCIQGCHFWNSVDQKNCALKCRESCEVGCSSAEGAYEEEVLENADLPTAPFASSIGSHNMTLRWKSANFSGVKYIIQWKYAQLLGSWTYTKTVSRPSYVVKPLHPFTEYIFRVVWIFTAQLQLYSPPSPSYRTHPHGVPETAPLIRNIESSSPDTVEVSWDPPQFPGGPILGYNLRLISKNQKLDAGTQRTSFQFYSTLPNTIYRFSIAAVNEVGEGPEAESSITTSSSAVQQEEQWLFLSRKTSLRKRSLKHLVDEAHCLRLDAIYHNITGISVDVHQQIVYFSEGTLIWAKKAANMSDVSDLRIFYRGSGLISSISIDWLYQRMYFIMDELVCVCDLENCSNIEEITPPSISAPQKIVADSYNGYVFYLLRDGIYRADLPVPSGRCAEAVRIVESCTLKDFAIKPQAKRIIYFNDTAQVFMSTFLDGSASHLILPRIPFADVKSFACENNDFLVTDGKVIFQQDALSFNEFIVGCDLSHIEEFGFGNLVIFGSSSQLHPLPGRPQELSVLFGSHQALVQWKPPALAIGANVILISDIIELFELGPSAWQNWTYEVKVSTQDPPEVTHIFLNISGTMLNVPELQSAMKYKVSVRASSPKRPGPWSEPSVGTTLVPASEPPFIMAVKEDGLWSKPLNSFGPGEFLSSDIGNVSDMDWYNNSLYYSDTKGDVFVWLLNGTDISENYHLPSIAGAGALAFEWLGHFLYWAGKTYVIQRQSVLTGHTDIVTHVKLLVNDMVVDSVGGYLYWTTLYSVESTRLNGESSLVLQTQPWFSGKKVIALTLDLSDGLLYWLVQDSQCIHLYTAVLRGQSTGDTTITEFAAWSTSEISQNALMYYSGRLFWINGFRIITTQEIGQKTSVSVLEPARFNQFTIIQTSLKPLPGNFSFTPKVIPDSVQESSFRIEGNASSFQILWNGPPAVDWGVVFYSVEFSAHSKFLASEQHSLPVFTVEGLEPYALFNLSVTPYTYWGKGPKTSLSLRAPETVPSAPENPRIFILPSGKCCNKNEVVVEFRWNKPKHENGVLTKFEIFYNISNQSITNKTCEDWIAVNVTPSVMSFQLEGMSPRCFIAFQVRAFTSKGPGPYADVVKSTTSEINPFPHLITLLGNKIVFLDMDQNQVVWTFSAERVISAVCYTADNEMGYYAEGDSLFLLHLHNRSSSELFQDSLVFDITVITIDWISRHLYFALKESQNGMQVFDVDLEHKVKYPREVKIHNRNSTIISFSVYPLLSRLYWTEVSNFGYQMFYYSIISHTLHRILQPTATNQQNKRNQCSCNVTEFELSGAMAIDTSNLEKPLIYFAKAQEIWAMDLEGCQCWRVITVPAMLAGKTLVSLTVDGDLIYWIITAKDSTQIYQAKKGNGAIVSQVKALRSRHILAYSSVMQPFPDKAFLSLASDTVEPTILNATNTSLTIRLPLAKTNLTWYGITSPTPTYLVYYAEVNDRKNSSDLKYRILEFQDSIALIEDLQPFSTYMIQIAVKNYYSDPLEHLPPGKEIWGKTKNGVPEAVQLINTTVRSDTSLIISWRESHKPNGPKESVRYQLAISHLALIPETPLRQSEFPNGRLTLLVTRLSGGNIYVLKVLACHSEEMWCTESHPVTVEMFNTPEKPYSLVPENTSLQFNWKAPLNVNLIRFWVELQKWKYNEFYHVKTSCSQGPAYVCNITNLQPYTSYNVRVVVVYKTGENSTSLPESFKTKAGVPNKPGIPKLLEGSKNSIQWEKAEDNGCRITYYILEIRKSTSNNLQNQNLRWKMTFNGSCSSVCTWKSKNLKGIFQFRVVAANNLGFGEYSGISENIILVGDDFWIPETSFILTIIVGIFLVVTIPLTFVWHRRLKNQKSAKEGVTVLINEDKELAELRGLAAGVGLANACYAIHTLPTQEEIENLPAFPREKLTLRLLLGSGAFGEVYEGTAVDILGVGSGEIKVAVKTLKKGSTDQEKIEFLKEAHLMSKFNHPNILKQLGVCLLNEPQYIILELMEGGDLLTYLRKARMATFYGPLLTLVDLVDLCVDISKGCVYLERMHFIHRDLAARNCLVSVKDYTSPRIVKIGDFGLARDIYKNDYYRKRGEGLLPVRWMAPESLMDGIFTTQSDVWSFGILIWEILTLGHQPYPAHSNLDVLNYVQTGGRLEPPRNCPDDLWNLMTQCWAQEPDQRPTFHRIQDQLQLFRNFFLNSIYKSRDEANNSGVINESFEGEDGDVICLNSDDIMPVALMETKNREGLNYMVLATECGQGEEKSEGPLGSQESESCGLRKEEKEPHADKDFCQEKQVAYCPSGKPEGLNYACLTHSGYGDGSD
Atypical kinase COQ8A, mitochondrial, sequence (Q8NI60 whole entry): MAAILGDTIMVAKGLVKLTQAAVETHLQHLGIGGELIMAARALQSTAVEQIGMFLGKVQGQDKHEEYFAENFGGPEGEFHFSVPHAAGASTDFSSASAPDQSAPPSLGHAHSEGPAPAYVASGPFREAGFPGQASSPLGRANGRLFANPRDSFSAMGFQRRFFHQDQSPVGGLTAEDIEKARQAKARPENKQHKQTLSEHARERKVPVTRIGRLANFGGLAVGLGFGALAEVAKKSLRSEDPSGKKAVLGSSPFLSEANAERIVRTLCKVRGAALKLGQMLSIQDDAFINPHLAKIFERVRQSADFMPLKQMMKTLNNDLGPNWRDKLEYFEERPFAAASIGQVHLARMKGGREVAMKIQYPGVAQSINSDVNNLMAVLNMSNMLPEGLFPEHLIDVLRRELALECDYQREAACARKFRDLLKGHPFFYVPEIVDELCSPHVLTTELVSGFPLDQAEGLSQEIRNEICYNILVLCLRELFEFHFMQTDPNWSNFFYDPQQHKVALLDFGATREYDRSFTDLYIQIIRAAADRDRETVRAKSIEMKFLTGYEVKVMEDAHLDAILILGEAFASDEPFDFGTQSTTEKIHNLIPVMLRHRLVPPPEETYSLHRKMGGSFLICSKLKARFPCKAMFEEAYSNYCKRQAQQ
Insulin receptor, sequence (P06213 28-758 limits assumed): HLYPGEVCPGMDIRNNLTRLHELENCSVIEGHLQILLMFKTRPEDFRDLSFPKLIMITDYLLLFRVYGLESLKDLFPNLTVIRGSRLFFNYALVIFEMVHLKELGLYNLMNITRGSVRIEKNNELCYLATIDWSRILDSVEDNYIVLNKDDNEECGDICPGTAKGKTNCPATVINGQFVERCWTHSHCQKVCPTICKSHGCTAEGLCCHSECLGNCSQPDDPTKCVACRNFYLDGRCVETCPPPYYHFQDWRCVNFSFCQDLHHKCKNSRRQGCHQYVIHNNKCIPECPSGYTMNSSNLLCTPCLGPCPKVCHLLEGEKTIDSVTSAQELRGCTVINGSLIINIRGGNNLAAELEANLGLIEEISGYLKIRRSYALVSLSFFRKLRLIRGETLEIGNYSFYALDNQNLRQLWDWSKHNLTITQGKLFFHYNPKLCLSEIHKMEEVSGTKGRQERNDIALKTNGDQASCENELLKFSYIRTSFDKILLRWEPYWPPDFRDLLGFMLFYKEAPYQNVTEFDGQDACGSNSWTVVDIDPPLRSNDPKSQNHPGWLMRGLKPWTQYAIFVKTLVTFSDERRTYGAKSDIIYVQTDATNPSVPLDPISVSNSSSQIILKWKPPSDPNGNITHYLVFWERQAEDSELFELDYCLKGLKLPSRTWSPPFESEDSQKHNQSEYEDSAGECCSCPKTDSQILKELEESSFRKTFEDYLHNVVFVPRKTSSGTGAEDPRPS
Insulin receptor, sequence (P06213 763-1382 limits assumed): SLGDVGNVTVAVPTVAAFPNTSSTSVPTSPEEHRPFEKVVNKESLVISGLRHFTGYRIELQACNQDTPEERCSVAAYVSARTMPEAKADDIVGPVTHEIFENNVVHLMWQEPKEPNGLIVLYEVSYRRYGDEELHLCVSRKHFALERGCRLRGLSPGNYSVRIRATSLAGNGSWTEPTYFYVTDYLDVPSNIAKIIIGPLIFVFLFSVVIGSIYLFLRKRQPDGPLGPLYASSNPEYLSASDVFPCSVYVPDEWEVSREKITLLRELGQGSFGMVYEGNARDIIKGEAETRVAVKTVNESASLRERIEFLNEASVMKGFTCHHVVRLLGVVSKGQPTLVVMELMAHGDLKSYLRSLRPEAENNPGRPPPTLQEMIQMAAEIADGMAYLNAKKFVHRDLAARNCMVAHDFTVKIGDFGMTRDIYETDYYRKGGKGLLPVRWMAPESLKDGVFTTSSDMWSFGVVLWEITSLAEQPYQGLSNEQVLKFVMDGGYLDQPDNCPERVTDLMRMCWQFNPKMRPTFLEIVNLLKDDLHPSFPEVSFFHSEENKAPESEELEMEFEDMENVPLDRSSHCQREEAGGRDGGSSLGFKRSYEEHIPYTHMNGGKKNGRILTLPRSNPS

In the case of `CC(C)(O)[C@H](F)CN1Cc2cc(NC(=O)c3cnn4cccnc34)c(N3CCOCC3)cc2C1=O`, the dTM in test [1] was -1.2 K.
In test [2], `Cn1cc(-n2cnc3c(NCc4nc5cc(Cl)c(Cl)cc5[nH]4)nc(N4CCOCC4)nc32)cn1` showed a % of control of 6.49%.
For `CNC(=O)Nc1ccc(-c2nc(N3CC4CCC(C3)O4)c3cnn(C4CCC5(CC4)OCCO5)c3n2)cc1`, in test [3], the % of control came to 77%. In test [4], the % of inhibition worked out at 2%.
The term Kd denotes the equilibrium constant for the complex coming apart. A higher Kd goes with lower affinity. In test [5], `COc1cc(N(C)c2ccnc3ccc(C(F)(F)F)cc23)cc(OC)c1OC` registered a Kd greater than 10 µM. This compound also came in with a % binding at Insulin receptor of 100%.
Consider `N#Cc1cccc(-c2c[nH]c3ncnc(N4CCOCC4)c23)c1`, for which, in test [6], the % of control was 21%.
Turning to `O[C@H]1CC[C@H](Nc2ncc3nc(Nc4c(F)cc(F)cc4F)n([C@H]4CCOC4)c3n2)CC1`, the % of control in test [7] is 100%.
